EP4782453A1 (Beyang Therapeutics Co., Ltd., priority 2023, dated 2025)
Read-outs that look alike come from different tables or passages of the source.

Columns and labels:
Menin-MLL = target: T1, Menin-MLL (Homo sapiens, UniProt O00255); test: Inhibitory activity against Menin-MLL binding (fluorescence polarization); settings: 150 nM His-Menin, 15 nM FITC-MLL, 25°C for 60 min
T1 construct: His-Menin (M1-L615 end); purchased BIORTUS BP9210
T1 sequence (O00255 1-615 isoform O00255-1): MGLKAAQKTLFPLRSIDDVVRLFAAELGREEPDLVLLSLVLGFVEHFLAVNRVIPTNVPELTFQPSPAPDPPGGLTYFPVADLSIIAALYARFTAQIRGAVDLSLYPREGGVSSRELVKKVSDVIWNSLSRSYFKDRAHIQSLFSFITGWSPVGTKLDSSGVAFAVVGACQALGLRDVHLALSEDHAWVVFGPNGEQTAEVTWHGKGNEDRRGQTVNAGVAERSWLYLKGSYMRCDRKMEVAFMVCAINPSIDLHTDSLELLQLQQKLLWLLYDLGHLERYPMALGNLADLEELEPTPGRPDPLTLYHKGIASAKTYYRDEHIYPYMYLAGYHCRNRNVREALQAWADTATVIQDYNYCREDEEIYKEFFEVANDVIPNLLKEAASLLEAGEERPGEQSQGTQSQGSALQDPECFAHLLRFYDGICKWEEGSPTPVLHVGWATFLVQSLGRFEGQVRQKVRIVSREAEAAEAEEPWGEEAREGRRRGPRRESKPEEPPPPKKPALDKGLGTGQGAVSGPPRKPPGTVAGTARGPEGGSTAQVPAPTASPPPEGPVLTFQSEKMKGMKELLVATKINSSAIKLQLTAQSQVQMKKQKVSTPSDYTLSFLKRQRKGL
In short: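 His-Menin (M1-L615, 150 nM) preincubated with compound 15 min at 25 °C in HEPES pH 7.5, 50 mM NaCl, 1 mM DTT, 0.01% BSA, then 15 nM FITC-MLL4-43 peptide added for 60 min at 25 °C. Fluorescence polarization read; IC50 from 4-parameter logistic fit, duplicates.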

[1] = system: MV-4-11 (carrying MLL-AF4); test: Inhibition of proliferation of human tumor cells (Alamar Blue, 7 days), MV-4-11; format: cell-based; settings: MV-4-11 cells (carrying MLL-AF4), method calls the value GI50
Excerpt: Experimental Example 2: Evaluation of Inhibitory Activity of Compounds Against Proliferation of Human Tumor Cells
• Human acute lymphoblastic leukemia cells MV-4-11, purchased from American Type Culture Collection, Catalog Number: CRL-9591; • Human acute myeloid leukemia cells MOLM-13, purchased from COBIOER BIOSCIENCES CO., LTD, Catalog Number: CBP60678; • Human acute myeloid leukemia cells KG-1a, purchased from American Type Culture Collection, Catalog Number: CCL-246.1; • Inverted Microscope, purchased from Olympus Tokyo; • Countess™ Automated Cell Counter, purchased from Invitrogen, Model: C10281; and • Multilabel Reader, purchased from Bio-Tek, Model: Synergy HT.
MV-4-11 cells were cultured in an IMDM medium containing 10% fetal bovine serum, KG-a cells were cultured in an IMDM medium containing 20% fetal bovine serum, or MOLM-13 cells were cultured in an RPMI-1640 medium containing 20% fetal bovine serum, each supplemented with 100 U·mL^-1 penicillin and 100 µg·mL^-1 streptomycin. These cells were cultured at 37°C with 5% CO2. The suspensions of individual cell lines were prepared in their respective media and seeded into 96-well plates at a density of 4,000 cells/well for MV-4-11 and MOLM-13 cells, or 3,000 cells/well for KG-1a cells. On the day of the experiment, a compound stock solution was diluted in a 3-fold or 4-fold gradient using DMSO. Each gradient-diluted stock solution was then further diluted 250-fold with a complete medium to prepare a series of working solutions at different concentrations. Subsequently, 100 µL of working solution (containing a 2-fold concentration series of the test compound) was added to each well, with duplicate wells set up for each concentration.
Seven days after compound addition (on Day 7), an Alamar Blue assay reagent (MCE, HY-111391 / CS-0040317) was added to measure the fluorescence intensity in each well. Wells containing the cells in the growth medium supplemented with 0.1% DMSO (Day 7) served as high-read control wells. The readouts from the wells containing the cells in the growth medium supplemented with 0.1% DMSO on the day of compound addition (Day 0) served as low-reading control well. GraphPad Prism software was used to calculate the concentration required to inhibit 50% of cell proliferation (GI50), which serves as a cell proliferation inhibition activity index.

[2] = system: MOLM-13 (carrying MLL-AF9); test: Inhibition of proliferation of human tumor cells (Alamar Blue, 7 days), MOLM-13; format: cell-based; settings: MOLM-13 cells (carrying MLL-AF9), method calls the value GI50
In short: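 Seven-day continuous compound exposure in duplicate wells, with 0.1% DMSO vehicle. Proliferation is quantified by Alamar Blue fluorescence and expressed as GI50, using Day 0 readings as the low reference.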

[3] = fluorescence polarization, read-out: Menin-MLL IC50
[4] = Menin-MLL IC50, fluorescence polarization

Row | IC50 (Menin-MLL; [3]) [nM] | IC50 ([1]; Homo sapiens, MV4-11, 168 h) [nM] | IC50 ([2]; Homo sapiens, 168 h) [nM] | IC50 [1] [nM] | IC50 [2] [nM] | SMILES | IC50 (Menin-MLL; [4]) [nM] | IC50 ([2]; Homo sapiens, MOLM-13, 168 h) [nM]
1 | 27 | 12 | 33 | – | – | Cc1nc(F)c2c(-c3ccc(F)cc3C(=O)N3CCOC[C@H]3C)cc(C3CN(CC4CCN(C(=O)CC(C)C)CC4)C3)cn12 [Example 271] | – | –
2 | 14 | – | – | 18.5 | 44 | CCN(C(=O)c1cc(F)ccc1-c1cc([C@H]2CCN(C[C@]3(O)CC[C@H](NS(=O)(=O)CC)CC3)C2)cc2c1cnn2C)C(C)C [Compound 55-1-1, N-ethyl-5-fluoro-2-[1-methyl-6-[(3R)-1-{[(1r,4s)-4-ethanesulfonamido-1-hydroxylcyclohexyl]methyl}pyrrolidin-3-yl]-1H-indazol-4-yl]-N-(isopropyl)benzamide] | – | –
3 | 3 | 7.1 | 41 | – | – | CC(=O)N1CCC(CN2CC(Cc3cc(-c4ccc(F)cc4C(=O)N(CC(F)F)C(C)C)c4cncc(C)n34)C2)CC1 [Example 210] | – | –
4 | 1 | 0.75 | 3 | – | – | CCN(C(=O)c1cc(F)ccc1-c1cc(CC2CN([C@H](CCCN(C)CCOC)C(C)C)C2)n2c(C)cncc12)C(C)C [Example 296-1, N-ethyl-5-fluoro-2-[6-({1-[(3R)-6-[(2-methoxyethyl)(methyl)amino]-2-methylhexan-3-yl]azacyclobutan-3-yl}methyl)-4-methylpyrrolo[1,2-a]pyrazin-8-yl]-N-(isopropyl)benzamide] | – | –
5 | 9 | 0.95 | 3.6 | – | – | CNCCCC(C(C)C)N1CC(c2cc(-c3ccc(F)cc3C(=O)N(CC(F)F)C(C)C)c3cnc(C)n3c2)C1 (centres unmarked) [Example 148] | – | –
6 | 29.5 | 25 | 40 | – | – | Cc1ncc2c(-c3ccc(F)cc3C(=O)N3CCC[C@H]3C)cc(C3CN(C(C)C4CCOCC4)C3)cn12 (some centres unmarked) [Example 190] | – | –
7 | 6 | 3.3 | 7.4 | – | – | CCNC(=O)N1CCC([C@H](C)N2CC(c3cc(-c4ccc(F)cc4C(=O)N4CCOC[C@H]4C)c4c(F)nc(C)n4c3)C2)CC1 [Example 279] | – | –
8 | 46 | 89 | – | – | – | CNCCCC(C(C)C)N1CC(c2cc(-c3ccc(F)cc3C(=O)N(CC(F)F)C(C)C)c3cnccn23)C1 (centres unmarked) [Example 146, N-(2,2-difluoroethyl)-5-fluoro-2-(6-{1-[2-methyl-6-(methylamino)hexan-3-yl]azacyclobutan-3-yl}pyrrolo[1,2-a]pyrazin-8-yl)-N-(isopropyl)benzamide] | – | –

The next lines start with the molecule.

Row | SMILES | IC50 (Menin-MLL; [3]) [nM] | IC50 ([1]; Homo sapiens, MV4-11, 168 h) [nM] | IC50 ([2]; Homo sapiens, 168 h) [nM] | IC50 [1] [nM] | IC50 [2] [nM] | IC50 (Menin-MLL; [4]) [nM] | IC50 ([2]; Homo sapiens, MOLM-13, 168 h) [nM]
9 | Cc1nc(F)c2c(-c3ccc(F)cc3C(=O)N3CCOC[C@H]3C)cc(C3CN(CC4CCN(C(=O)C5CC5)CC4)C3)cn12 [Example 269] | 33.5 | 37 | 83 | – | – | – | –
10 | Cc1nc(F)c2c(-c3ccc(F)cc3C(=O)N3CCOC[C@H]3C)cc(C3CN(CC4CCN(C(=O)C5(O)CC5)CC4)C3)cn12 [Example 248] | 30.5 | 34 | 63 | – | – | – | –
11 | CCS(=O)(=O)N[C@H]1CC[C@H](CN2CC[C@@H](c3cc(-c4ccc(F)cc4C(=O)N(CC(F)F)C(C)C)c4cnc(C)n4c3)C2)CC1 [Example 164, N-(2,2-difluoroethyl)-5-fluoro-2-{3-methyl-6-[(3S)-1-{[(1r,4r)-4-ethanesulfonamidocyclohexyl]methyl}pyrrolidin-3-yl]imidazo[1,5-a]pyridin-8-yl]-N-(isopropyl)benzamide] | – | 2.2 | – | – | – | 6 | 6.1
12 | CNC(=O)N1CCC(CN2CC(c3cc(-c4ccc(F)cc4C(=O)N4[C@H](C)COC[C@H]4C)c4c(F)nc(C)n4c3)C2)CC1 [Example 222] | 7 | 4.4 | 9 | – | – | – | –
13 | Cc1nc(F)c2c(-c3ccc(F)cc3C(=O)N3[C@H](C)COC[C@H]3C)cc(C3CN(CC4CCN(C(=O)C5(O)CC5)CC4)C3)cn12 [Example 214] | 5 | 7.5 | 12 | – | – | – | –
14 | Cc1nc(F)c2c(-c3ccc(F)cc3C(=O)N3CCOC[C@H]3C)cc(C3CN(C[C@H]4CC[C@@H](n5cncn5)CC4)C3)cn12 [Example 267, (3R)-4-{5-fluoro-2-[1-fluoro-3-methyl-6-(1-{[(1s,4s)-4-(1H-1,2,4-triazol-1-yl)cyclohexyl]methyl}azacyclobutan-3-yl)imidazo[1,5-a]pyridin-8yl]benzoyl}-3-methylmorpholine] | 12 | 20 | 45 | – | – | – | –
15 | Cc1nc(F)c2c(-c3ccc(F)cc3C(=O)N3CCOC[C@H]3C)cc(C3CN(CC4CCN(C(=O)N5CC(F)(F)C5)CC4)C3)cn12 [Example 258] | 50 | 36 | 49 | – | – | – | –
16 | CCN(C(=O)c1cc(F)ccc1-c1cc(C2CN(C[C@H]3CC[C@H](NS(=O)(=O)CC)CC3)C2)cn2c(C)ncc12)C(C)C [Example 120, N-ethyl-5-fluoro-2-[3-methyl-6-(1-{[(1r,4r)-4-ethanesulfonamidocyclohexyl]methyl}-azacyclobutan-3-yl)imidazo[1,5-a]pyridin-8-yl]-N-(isopropyl)benzamide] | – | 8.5 | – | – | – | 8.5 | 29.5
17 | Cc1nc(F)c2c(-c3ccc(F)cc3C(=O)N3[C@H](C)COC[C@H]3C)cc(C3CN(CC4CCN(CC5(O)CCOCC5)CC4)C3)cn12 [Example 211, 4-[(4-{[3-(8-{2-[(3R,5R)-3,5-dimethylmorpholin-4-carbonyl]-4-fluorophenyl}-1-fluoro-3-methylimidazo[1,5-a]pyridin-6-yl)azacyclobutan-1-yl]methyl}piperidin-1-yl)methyl]oxacyclohexan-4-ol] | 3 | 2.2 | 5.7 | – | – | – | –
18 | Cc1nc(F)c2c(-c3ccc(F)cc3C(=O)N3[C@H](C)COC[C@H]3C)cc(C3CN(CC4CCN(C(=O)c5cn[nH]c5)CC4)C3)cn12 [Example 247] | 9.5 | 9.2 | 22 | – | – | – | –
19 | Cc1nc(F)c2c(-c3ccc(F)cc3C(=O)N3CCOC[C@H]3C)cc(C3CN(CC4CCOCC4)C3)cn12 [Example 232, (3R)-4-[5-fluoro-2-(1-fluoro-3-methyl-6-{1-[(oxacyclohexan-4-yl)methyl]azacyclobutan-3-yl}imidazo[1,5-a]pyridin-8-yl)benzoyl]-3-methylmorpholine] | 17.5 | 17 | 34 | – | – | – | –
20 | CCS(=O)(=O)N[C@H]1CC[C@H](CN2CCC(c3cc(-c4ccc(F)cc4C(=O)N(CC(F)F)C(C)C)c4cnc(C)n4c3)CC2)CC1 [Example 128] | – | 56 | – | – | – | 37 | 30
